biological target: T1, delta-5-desaturase (Rattus norvegicus, UniProt Q920R3); test: Inhibitory activity on delta-5-desaturase (rat liver microsomal fraction, 14C-eicosatrienoic acid, TLC); assay type: biochemical; conditions: test compound at 10 μM, room temperature, 120 minutes
T1 construct: the microsomal fraction of a rat river (10 μl), which had been diluted to 3 mg/ml; from tissue; host or cells: rat liver microsomal fraction
Protocol: An inhibitory activity of a test compound on delta-5-desaturase was measured according to the method described herein below. To a DMSO solution of the test compound which had been previously prepared, secondary dilution was carried out by using a buffer (300 mM NaH2PO4 [pH 7.4], 450 mM KCl, 30 mM NaF, 9 mM MgCl2, 4.5 mM glutathione [reduced form], 0.3% BSA [fatty acid free, SIGMA]). This diluent compound (10 μl) was added in a 96-well deep well block made of polypropylene, and then the microsomal fraction of a rat river (10 μl), which had been diluted to 3 mg/ml by using a microsome buffer (10 mM Tris-HCl [pH 7.4], 1 mM EDTA, and 250 mM sucrose), was added thereto. The enzyme reaction was initiated by adding 10 μl of 9 mM NADH, 9 mM ATP, 0.9 mM CoA and 10 μCi/ml (8E,11E,14E)-(1-^14C)eicosa-8,11,14-trienoic acid (PerkinElmer Inc.). The enzyme reaction was carried out at room temperature for 120 minutes, and then terminated by addition of 2.5 M NaOH (10 μl). Upon the completion of the reaction, the plate was covered with plate seal and incubated overnight in a dry heater of which temperature was set at 55° C. for saponification. Based on Bligh & Dyer method which had been described in a known document, Canadian Journal of Biochemistry and Physiology (Can. J. Biochem. Physiol.), Vol. 37, page 911, 1959), the solvent extraction of fatty acid was carried out by adding 200 μl of formic acid:methanol:chloroform (1:6:3), keeping the mixture as a single layer for a while, stirring the mixture to a sufficient level, and adding 120 μl of pure water to separate the mixture into two layers. 10 μl of the bottom chloroform layer was spotted on a reverse phase TLC plate (RP-18, 1154230001, Merck Japan, Ltd.) and then developed with acetonitrile:pure water:acetic acid (95:4.5:0.5). The TLC plate obtained after drying was transferred to an Imaging Plate (Fuji Photo Film Co., Ltd.) for more than 5 hours. Detection was carried out by using BAS-5000 (Fuji Photo Film Co., Ltd.). Numerization of thus-obtained image was carried out by using Multi Gauge Ver 2.3 (Fuji Photo Film Co., Ltd.) and an inhibitory ratio (%) of the test compound at 10 μM on delta-5-desaturase was obtained.

T1 sequence (Q920R3 whole entry): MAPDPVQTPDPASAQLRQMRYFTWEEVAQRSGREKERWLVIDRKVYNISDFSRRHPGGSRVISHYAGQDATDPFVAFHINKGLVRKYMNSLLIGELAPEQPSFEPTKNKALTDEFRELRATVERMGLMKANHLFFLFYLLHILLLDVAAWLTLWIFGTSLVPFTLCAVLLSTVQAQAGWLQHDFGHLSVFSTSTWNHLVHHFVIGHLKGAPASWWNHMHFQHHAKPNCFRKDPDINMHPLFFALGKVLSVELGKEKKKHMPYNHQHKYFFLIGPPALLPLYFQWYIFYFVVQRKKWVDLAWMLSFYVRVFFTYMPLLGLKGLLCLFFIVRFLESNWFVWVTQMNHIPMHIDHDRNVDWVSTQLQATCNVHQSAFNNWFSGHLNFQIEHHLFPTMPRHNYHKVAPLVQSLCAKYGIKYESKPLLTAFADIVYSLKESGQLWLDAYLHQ

| inhibition at 10 µM [%] | Structure (SMILES) |
| --- | --- |
| 101 | CCSc1nc2[nH]c(Cl)cc2c(=O)n1-c1ccc(OCC(F)(F)F)cc1 [Example 231, 6-Chloro-2-(ethylsulfanyl)-3-[4-(2,2,2-trifluoroethoxy)phenyl]-3,7-dihydro-4H-pyrrolo[2,3-d]pyrimidin-4-one] |
| 101 | N#CCCNC(=O)CCCSc1nc2cc[nH]c2c(=O)n1-c1ccc(OCC2CCC2)cc1 [Example 82, N-(2-cyanoethyl)-4-({3-[4-(cyclobutylmethoxy)phenyl]-4-oxo-4,5-dihydro-3H-pyrrolo[3,2-d]pyrimidin-2-yl}sulfanyl)butanamide] |
| 102 | O=c1c2[nH]ccc2nc(SCCO)n1-c1ccc(OCC(F)(F)F)cc1 [Example 127, 2-[(2-Hydroxyethyl)sulfanyl]-3-[4-(2,2,2-trifluoroethoxy)phenyl]-3,5-dihydro-4H-pyrrolo[3,2-d]pyrimidin-4-one] |
| 101 | O=c1c2[nH]ccc2nc(SCCCOC2CCOCC2)n1-c1ccc(OCC2CC2)cc1 [Example 157, 3-[4-(Cyclopropylmethoxy)phenyl]-2-{[3-(tetrahydro-2H-pyran-4-yloxy)propyl]sulfanyl}-3,5-dihydro-4H-pyrrolo[3,2-d]pyrimidin-4-one] |
| 99 | Cc1c[nH]c2c(=O)n(-c3ccc(OCC(F)(F)F)cc3)c(SCCCC(=O)NCCC#N)nc12 [Example 172, N-(2-cyanoethyl)-4-({7-methyl-4-oxo-3-[4-(2,2,2-trifluoroethoxy)phenyl]-4,5-dihydro-3H-pyrrolo[3,2-d]pyrimidin-2-yl}sulfanyl)butanamide] |
| 98 | O=c1c2[nH]ccc2nc(SCCOC2CCOCC2)n1-c1ccc(OCC2CC2)cc1 [Example 147, 3-[4-(Cyclopropylmethoxy)phenyl]-2-{[2-(tetrahydro-2H-pyran-4-yloxy)ethyl]sulfanyl}-3,5-dihydro-4H-pyrrolo[3,2-d]pyrimidin-4-one] |
| 101 | O=c1c2[nH]ccc2nc(SCCCS(=O)(=O)NC2CC2)n1-c1ccc(OCC(F)(F)F)cc1 [Example 108, N-cyclopropyl-3-({4-oxo-3-[4-(2,2,2-trifluoroethoxy)phenyl]-4,5-dihydro-3H-pyrrolo[3,2-d]pyrimidin-2-yl}sulfanyl)propane-1-sulfonamide] |
| 103 | CCSc1nc2cc[nH]c2c(=O)n1-c1ccc(OCC2CC2)c(Cl)c1 [Example 162, 3-[3-Chloro-4-(cyclopropylmethoxy)phenyl]-2-(ethylsulfanyl)-3,5-dihydro-4H-pyrrolo[3,2-d]pyrimidin-4-one] |
| 101 | Cn1ccc2c(=O)n(-c3ccc(OCC(F)(F)F)cc3)c(SCCCC(=O)NCCC#N)nc21 [Example 195] |
| 96 | CCSc1nc2[nH]c(Br)cc2c(=O)n1-c1ccc(OCC(F)(F)F)cc1 [Example 232, 6-Bromo-2-(ethylsulfanyl)-3-[4-(2,2,2-trifluoroethoxy)phenyl]-3,7-dihydro-4H-pyrrolo[2,3-d]pyrimidin-4-one] |
| 100 | COCCOCCCSc1nc2c(c(=O)n1-c1ccc(OCC(F)(F)F)cc1)CC(=O)N2 [Example 299, 2-{[3-(2-Methoxyethoxy)propyl]sulfanyl}-3-[4-(2,2,2-trifluoroethoxy)phenyl]-5,7-dihydro-3H-pyrrolo[2,3-d]pyrimidine-4,6-dione] |
| 98 | CCOc1ccc(-n2c(SCCCC(=O)NCC#N)nc3cc[nH]c3c2=O)cc1 [Example 63, N-(cyanomethyl)-4-{[3-(4-ethoxyphenyl)-4-oxo-4,5-dihydro-3H-pyrrolo[3,2-d]pyrimidin-2-yl]sulfanyl}butanamide] |
| 103 | CC(C)Oc1nc2[nH]ccc2c(=O)n1-c1ccc(OCC(F)(F)F)c(F)c1 [Example 316, 3-[3-Fluoro-4-(2,2,2-trifluoroethoxy)phenyl]-2-(1-methylethoxy)-3,7-dihydro-4H-pyrrolo[2,3-d]pyrimidin-4-one] |
| 100 | N#CC1(CSc2nc3c(c(=O)n2-c2ccc(OCC(F)(F)F)cc2)CC(=O)N3)CC1 [Example 339, 1-[({4,6-Dioxo-3-[4-(2,2,2-trifluoroethoxy)phenyl]-4,5,6,7-tetrahydro-3H-pyrrolo[2,3-d]pyrimidin-2-yl}sulfanyl)methyl]cyclopropanecarbonitrile] |
| 99 | CS(=O)(=O)CCCSc1nc2c(c(=O)n1-c1ccc(OCC3CC3)cc1)CC(=O)N2 [Example 301, 3-[4-(Cyclopropylmethoxy)phenyl]-2-{[3-(methylsulfonyl)propyl]sulfanyl}-5,7-dihydro-3H-pyrrolo[2,3-d]pyrimidine-4,6-dione] |
| 94 | CC(C)(O)CNC(=O)CCCSc1nc2cc[nH]c2c(=O)n1-c1ccc(OCC(F)(F)F)cc1 [Example 99, N-(2-hydroxy-2-methylpropyl)-4-({4-oxo-3-[4-(2,2,2-trifluoroethoxy)phenyl]-4,5-dihydro-3H-pyrrolo[3,2-d]pyrimidin-2-yl}sulfanyl)butanamide] |
| 98 | CSc1nc2[nH]ccc2c(=O)n1-c1ccc(OCC(F)(F)F)c(F)c1 [Example 237, 3-[3-Fluoro-4-(2,2,2-trifluoroethoxy)phenyl]-2-(methylsulfanyl)-3,7-dihydro-4H-pyrrolo[2,3-d]pyrimidin-4-one] |
| 104 | O=C1Cc2c(nc(OCCC3CC3)n(-c3ccc(OCC(F)(F)F)cc3)c2=O)N1 [Example 319, 2-(2-Cyclopropylethoxy)-3-[4-(2,2,2-trifluoroethoxy)phenyl]-5,7-dihydro-3H-pyrrolo[2,3-d]pyrimidine-4,6-dione] |
| 97 | CC(C)Sc1nc2[nH]ccc2c(=O)n1-c1ccc(OCC(F)(F)F)cc1 [Example 251, 2-[(1-Methylethyl)sulfanyl]-3-[4-(2,2,2-trifluoroethoxy)phenyl]-3,7-dihydro-4H-pyrrolo[2,3-d]pyrimidin-4-one] |
| 100 | O=C(CCCSc1nc2cc[nH]c2c(=O)n1-c1ccc(OCC(F)(F)F)cc1)N1CCC(O)CC1 [Example 98, 2-{[4-(4-Hydroxypiperidin-1-yl)-4-oxobutyl]sulfanyl}-3-[4-(2,2,2-trifluoroethoxy)phenyl]-3,5-dihydro-4H-pyrrolo[3,2-d]pyrimidin-4-one] |
| 101 | CCSc1nc2[nH]ccc2c(=O)n1-c1ccc(OCC(F)F)cc1 [Example 248, 3-[4-(2,2-Difluoroethoxy)phenyl]-2-(ethylsulfanyl)-3,7-dihydro-4H-pyrrolo[2,3-d]pyrimidin-4-one] |
| 100 | O=c1c2cc[nH]c2nc(SCC(F)(F)F)n1-c1ccc(OCC(F)(F)F)cc1 [Example 225, 3-[4-(2,2,2-Trifluoroethoxy)phenyl]-2-[(2,2,2-trifluoroethyl)sulfanyl]-3,7-dihydro-4H-pyrrolo[2,3-d]pyrimidin-4-one] |
| 101 | O=c1c2cc[nH]c2nc(OCC(F)(F)F)n1-c1ccc(OCC(F)(F)F)c(F)c1 [Example 264, 3-[3-Fluoro-4-(2,2,2-trifluoroethoxy)phenyl]-2-(2,2,2-trifluoroethoxy)-3,7-dihydro-4H-pyrrolo[2,3-d]pyrimidin-4-one] |
| 100 | CCSc1nc2[nH]ccc2c(=O)n1-c1ccc(OCC2CC2)cc1 [Example 208, 3-[4-(Cyclopropylmethoxy)phenyl]-2-(ethylsulfanyl)-3,7-dihydro-4H-pyrrolo[2,3-d]primidin-4-one] |
| 99 | CCOc1ccc(-n2c(SCCCC(=O)NCCC#N)nc3cc[nH]c3c2=O)cc1 [Example 60, N-(2-cyanoethyl)-4-{[3-(4-ethoxyphenyl)-4-oxo-4,5-dihydro-3H-pyrrolo[3,2-d]pyrimidin-2-yl]sulfanyl}butanamide] |
| 100 | CC(C)(C)COc1ccc(-n2c(SCCCC(=O)NCCC#N)nc3[nH]ccc3c2=O)cc1 [Example 174, N-(2-cyanoethyl)-4-({3-[4-(2,2-dimethylpropoxy)phenyl]-4-oxo-4,7-dihydro-3H-pyrrolo[2,3-d]pyrimidin-2-yl}sulfanyl)butanamide] |

same assay, conditions: test compound at 10 μM, room temperature, 120 minutes, 10 µM

| Structure (SMILES) | Inhibitory activity at 10 μM (%) |
| --- | --- |
| O=c1c2cc[nH]c2nc(OC2CCC2)n1-c1ccc(OCC(F)(F)F)cc1 [Example 283, 2-(Cyclobutyloxy)-3-[4-(2,2,2-trifluoroethoxy)phenyl]-3,7-dihydro-4H-pyrrolo[2,3-d]pyrimidin-4-one] | 101 |
| CCCCOc1nc2[nH]ccc2c(=O)n1-c1ccc(OCC(F)(F)F)cc1 [Example 287, 2-Butoxy-3-[4-(2,2,2-trifluoroethoxy)phenyl]-3,7-dihydro-4H-pyrrolo[2,3-d]pyrimidin-4-one] | 98 |

Reference: patent publication US20100190747A1, “Fused ring compound and use thereof” (priority 2009, published 2010)
